Type in all cases: functional
Test [1] relates to Riparian frogs. Nature of the test: Negative chronotropic action measured as decrease in rate of contraction in isolated perfused frog heart. Particulars: Hoplobatrachus tigerinus.
Test [2] deals with Riparian frogs. Put plainly: Positive inotropic action measured as increase in force of contraction in isolated perfused frog heart. Particulars: Hoplobatrachus tigerinus.
Test [3] has as its system Riparian frogs. Nature of the test: Increase in cardiac output in isolated perfused frog heart. Particulars: Hoplobatrachus tigerinus.
Test [4] relates to Riparian frogs. Nature of the test: Effect on cardiac output in isolated perfused frog heart. Particulars: Ranidae.
Test [5] has as its system Riparian frogs. Put plainly: Effect on rate of contraction in isolated perfused frog heart. Particulars: Hoplobatrachus tigerinus.
Test [6] relates to Riparian frogs. Nature of the test: Effect on force of contraction in isolated perfused frog heart. Particulars: Hoplobatrachus tigerinus.
Test [7] has as its system Riparian frogs. Put plainly: Negative inotropic action in isolated perfused frog heart. Particulars: Hoplobatrachus tigerinus.
The subject of test [8] is Riparian frogs. Put plainly: Decrease in cardiac output in isolated perfused frog heart. Particulars: Hoplobatrachus tigerinus.
The target of test [9] is Adrenergic receptor beta (Homo sapiens) (UniProt P08588+P07550+P13945). Nature of the test: Antagonist activity at adrenergic beta receptor assessed as inhibition of adrenalin effect.
In test [10] the test system is Riparian frogs. Put plainly: Positive inotropic action measured as increase in force of contraction in isolated perfused frog heart at 1 mg/ml. Particulars: Hoplobatrachus tigerinus.
For test [11], the system named is Riparian frogs. Put plainly: Positive inotropic action measured as increase in force of contraction in isolated perfused frog heart at 500 ug/ml. Particulars: Hoplobatrachus tigerinus.
The subject of test [12] is Riparian frogs. Nature of the test: Increase in cardiac output in isolated perfused frog heart at 500 ug/ml. Particulars: Hoplobatrachus tigerinus.
Test [13] relates to Riparian frogs. Nature of the test: Increase in cardiac output in isolated perfused frog heart at 1 mg/ml. Particulars: Hoplobatrachus tigerinus.

Active and inactive are the calls of the source. The rule behind the calls is not given here.

For the compound `CCOC(=O)C1=C(C)NC(=O)NC1c1ccc(O)cc1` (stereo not given), the Activity entry in test [1] and in test [2] was “Dose-dependent effect” in each case. The result in [3] was Active.

Regarding `CC1=C(C(=O)Oc2ccccc2)C(c2cccc(O)c2)NC(=O)N1` (stereo not given), the Activity entry in test [1] and in test [2] was “Dose-dependent effect” throughout. Further, the result in [3] was Active.

Regarding `CCOC(=O)C1=C(C)NC(=O)NC1c1ccccc1[N+](=O)[O-]` (stereo not given), the outcome in [4], in test [5] and in test [6] was inactive.

As to `COC(=O)C1=C(C)NC(=O)NC1c1ccccc1Cl` (stereo not given), the result in test [7], in test [8], in [9] and in [1] was Active.

Turning to `CCOC(=O)C1=C(C)NC(=O)NC1c1ccc(OC)cc1` (stereo not given), the outcome in [1], in [2] and in test [3] was Active.

Consider `CCOC(=O)C1=C(C)NC(=O)NC1c1ccccc1Cl` (stereo not given), for which the result in [7], in [8], in test [9] and in test [1] was Active.

Turning to `CCOC(=O)C1=C(C)NC(=O)NC1C(C)C` (stereo not given), the Activity entry in [1] and in test [2] was “Dose-dependent effect” in each case. The outcome in [3] was Active.

Regarding `CCOC(=O)C1=C(C)NC(=O)NC1c1cccc(O)c1` (stereo not given), the Activity entry in [1] and in [2] was “Dose-dependent effect” throughout. Besides, in test [3], the outcome was Active.

For the compound `CCOC(=O)C1=C(C)NC(=O)NC1c1ccc(-c2ccccc2)cc1` (stereo not given), the result in test [10], in test [11], in test [12] and in [13] was Active.

These data come from ChEMBL document CHEMBL1137233, “Synthesis and cardiac effects of 3,4-dihydropyrimidin-2(1H)-one-5 carboxylates” (Bioorg Med Chem Lett, 2006).
